Patent publication US20120107398A1, “PHARMACEUTICAL COMPOSITIONS” (BOEHRINGER INGELHEIM INTERNATIONAL GMBH, priority 2010, published 2012)
Where a name gives a salt, the structure may show the parent alone.

Assay: Solubility of pioglitazone hydrochloride
Type: physicochemical
Description: For pioglitazone hydrochloride the intrinsic dissolution rates in aqueous media are only above 1000 μg/cm^2/min at pH 1, whereas for less acidic solutions (e.g. pH 2) the intrinsic dissolution rates are below 100 μg/cm^2/min. Therefore, the intrinsic dissolution rate of pioglitazone hydrochloride may be rate limiting for dissolution/absorption of the composition and pose an additional risk for providing similar dissolution profiles of pioglitazone hydrochloride in the composition to the original mono tablets (e.g. Actos) or combination market tablets (e.g. Duetact, Competact) and/or for matching bioequivalence with the original mono or combination market tablets.

- solubility in strongly acidic media (strongly acidic media): slightly better solubility
- solubility in water (water): practically insoluble
- solubility in weak acidic and neutral to basic media (weak acidic and neutral to basic media): very poor solubility
Structure (SMILES): CCc1ccc(CCOc2ccc(CC3SC(=O)NC3=O)cc2)nc1 (stereo not drawn) [pioglitazone hydrochloride]
